SMILES strings stand for the structures. Starred links: 1 amine or outer side, 2 acyl side, 3 side chain; linkers in the order of their positions; H or OH if unused. Positions of bridges follow the written chain, without caps; N, C: chain ends. Non-standard residues stand in square brackets, D forms with d. Residues, ends and D or L forms follow the SMILES beside them. *: point of attachment. hPhe(3-Cl-4-CF3) = N[C@@H](CCc1ccc(C(F)(F)F)c(Cl)c1)C(=O)O; X23 = CN([C@@H](Cc1ccccc1OC(F)(F)F)C(=O)[*:2])[*:1]; NMePhe(2-CF3) = CN[C@@H](Cc1ccccc1C(F)(F)F)C(=O)O; NMePhe(3-Cl) = CN[C@@H](Cc1cccc(Cl)c1)C(=O)O; NMePhe(2-Me) = CN[C@@H](Cc1ccccc1C)C(=O)O; NMeAla(cPent) = CN[C@@H](CC1CCCC1)C(=O)O; NMeNva(5,5-F2) = CN[C@@H](CCC(F)F)C(=O)O; NMeAla(cPr) = CN[C@@H](CC1CC1)C(=O)O; NMehPhe = CN[C@@H](CCc1ccccc1)C(=O)O; NMeCha = CN[C@@H](CC1CCCCC1)C(=O)O; NMeChg = CN[C@H](C(=O)O)C1CCCCC1; NMeF = CN[C@@H](Cc1ccccc1)C(=O)O; NMeD = CN[C@@H](CC(=O)O)C(=O)O; NMeL = CN[C@@H](CC(C)C)C(=O)O; NMeV = CN[C@H](C(=O)O)C(C)C; d(β3hA) = C[C@@H](N)CC(=O)O; Ac6c = NC1(C(=O)O)CCCCC1; NMeA = CN[C@@H](C)C(=O)O; Piperidide = C1CCN(*)CC1; Ac5c = NC1(C(=O)O)CCCC1; Aze = O=C(O)[C@@H]1CCN1; Sar = CNCC(=O)O

For the test, the target named is T1, Kras and SOS1 (biotin-tagged human Kras loaded with GDP, His-tagged human SOS1) (Homo sapiens, UniProt P01116, G12D).
T1 construct: made in house; host or cells: E. coli (stated for Kras only)
T1 sequence (P01116 1-188 isoform P01116-2 G12D): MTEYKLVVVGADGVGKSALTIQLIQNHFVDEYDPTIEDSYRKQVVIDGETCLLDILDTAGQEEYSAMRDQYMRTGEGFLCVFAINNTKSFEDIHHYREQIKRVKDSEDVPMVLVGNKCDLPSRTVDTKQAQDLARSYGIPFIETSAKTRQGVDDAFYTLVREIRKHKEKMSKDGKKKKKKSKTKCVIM
In words: Protein-protein interaction inhibition between Kras and SOS1 (KrasGl2D-SOS PPI) using AlphaScreen. The class given is binding. As to conditions: AlphaScreen; biotin-tagged human Kras loaded with GDP, His-tagged human SOS1; read-out: KRAS G12D-SOS PPI IC50. The method, boiled down:
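Energy transfer from nickel-chelate donor beads bound to His-SOS1 to streptavidin acceptor beads bound to biotin-Kras, expressed in E. coli and loaded with GDP after purification, was monitored. Donors were excited at 680 nm; singlet oxygen reaching acceptors gave emission read at 520-620 nm.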
As to `CC[C@H](C)[C@@H]1NC(=O)[C@H](CC(C)C)N(C)C(=O)C[C@@H](C(=O)N2CCCCC2)N(C)C(=O)[C@H](C(C)C)N(C)C(=O)C2(CCCC2)NC(=O)[C@@H]2CCCN2C(=O)[C@H](CCc2ccc(C(F)(F)F)c(Cl)c2)NC(=O)CN(C)C(=O)[C@H](CC2CCCCC2)N(C)C(=O)[C@@H]2CCN2C(=O)[C@H](C2CCCCC2)N(C)C1=O` [Compound 1600] ([NMeL]I[NMeChg][Aze][NMeCha][Sar][hPhe(3-Cl-4-CF3)]P[Ac5c][NMeV][NMeD]-Piperidide; lactam N-11), the half-inhibitory concentration (IC50) was found to be 310 nM.

In the case of `CC[C@H](C)[C@@H]1NC(=O)[C@H](CC(C)C)N(C)C(=O)C[C@@H](C)NC(=O)[C@H](C(C)C)N(C)C(=O)C2(CCCC2)NC(=O)[C@@H]2CCCN2C(=O)[C@H](CCc2ccc(C(F)(F)F)c(Cl)c2)NC(=O)CN(C)C(=O)[C@H](Cc2ccccc2)N(C)C(=O)CN(C)C(=O)CN(C)C1=O` [Compound 1606] (cyclo([Ac5c][NMeV][d(β3hA)][NMeL]I[Sar][Sar][NMeF][Sar][hPhe(3-Cl-4-CF3)]P)), the 50% inhibitory concentration (IC50) came out at 15 nM.

With `CC[C@H](C)[C@@H]1NC(=O)[C@H](CC(C)C)N(C)C(=O)C[C@@H](C)NC(=O)[C@H](C(C)C)N(C)C(=O)C2(CCCC2)NC(=O)[C@@H]2CCCN2C(=O)[C@H](CCc2ccc(C(F)(F)F)c(Cl)c2)NC(=O)CN(C)C(=O)[C@H](CC2CCCCC2)N(C)C(=O)[C@@H]2CCN2C(=O)[C@H](CC2CC2)N(C)C1=O` [Compound 1612] (cyclo([Ac5c][NMeV][d(β3hA)][NMeL]I[NMeAla(cPr)][Aze][NMeCha][Sar][hPhe(3-Cl-4-CF3)]P)), the IC50 stood at 390 nM.

As to `CC[C@H](C)[C@@H]1NC(=O)[C@H](CC(C)C)N(C)C(=O)C[C@@H](C)NC(=O)[C@H](C(C)C)N(C)C(=O)C2(CCCC2)NC(=O)[C@@H]2CCCN2C(=O)[C@H](CCc2ccc(C(F)(F)F)c(Cl)c2)NC(=O)CN(C)C(=O)[C@H](Cc2ccccc2C(F)(F)F)N(C)C(=O)CN(C)C(=O)CN(C)C1=O` [Compound 1613] (cyclo([Ac5c][NMeV][d(β3hA)][NMeL]I[Sar][Sar][NMePhe(2-CF3)][Sar][hPhe(3-Cl-4-CF3)]P)), the 50% inhibitory concentration (IC50) was determined as 110 nM.

With `CC[C@H](C)[C@@H]1NC(=O)[C@H](CC(C)C)N(C)C(=O)C[C@@H](C)NC(=O)[C@H](C(C)C)N(C)C(=O)C2(CCCC2)NC(=O)[C@@H]2CCCN2C(=O)[C@H](CCc2ccc(C(F)(F)F)c(Cl)c2)NC(=O)CN(C)C(=O)[C@H](Cc2ccccc2C)N(C)C(=O)CN(C)C(=O)CN(C)C1=O` [Compound 1614] (cyclo([Ac5c][NMeV][d(β3hA)][NMeL]I[Sar][Sar][NMePhe(2-Me)][Sar][hPhe(3-Cl-4-CF3)]P)), the half-maximal inhibitory concentration (IC50) was determined as 51 nM.

In the case of `CC[C@H](C)[C@@H]1NC(=O)[C@H](CC(C)C)N(C)C(=O)C[C@@H](C)NC(=O)[C@H](C(C)C)N(C)C(=O)C2(CCCC2)NC(=O)[C@@H]2CCCN2C(=O)[C@H](CCc2ccc(C(F)(F)F)c(Cl)c2)NC(=O)CN(C)C(=O)[C@H](CC2CCCCC2)N(C)C(=O)[C@@H]2CCN2C(=O)[C@H](CC2CCCC2)N(C)C1=O` [Compound 1618] (cyclo([Ac5c][NMeV][d(β3hA)][NMeL]I[NMeAla(cPent)][Aze][NMeCha][Sar][hPhe(3-Cl-4-CF3)]P)), the 50% inhibitory concentration (IC50) came to 290 nM.

`CC[C@H](C)[C@@H]1NC(=O)[C@H](C)N(C)C(=O)C[C@@H](C(=O)N2CCCCC2)N(C)C(=O)[C@H](C(C)C)N(C)C(=O)C2(CCCC2)NC(=O)[C@@H]2CCCN2C(=O)[C@H](CCc2ccc(C(F)(F)F)c(Cl)c2)NC(=O)CN(C)C(=O)[C@H](CC2CCCCC2)N(C)C(=O)[C@@H]2CCN2C(=O)[C@H](C2CCCCC2)N(C)C1=O` [Compound 1622] ([NMeA]I[NMeChg][Aze][NMeCha][Sar][hPhe(3-Cl-4-CF3)]P[Ac5c][NMeV][NMeD]-Piperidide; lactam N-11): the half-maximal inhibitory concentration (IC50) came to 130 nM.

As to `CC[C@H](C)[C@@H]1NC(=O)[C@H](CC(C)C)N(C)C(=O)C[C@@H](C)NC(=O)[C@H](C(C)C)N(C)C(=O)C2(CCCC2)NC(=O)[C@@H]2CCCN2C(=O)[C@H](CCc2ccc(C(F)(F)F)c(Cl)c2)NC(=O)CN(C)C(=O)[C@H](Cc2cccc(Cl)c2)N(C)C(=O)CN(C)C(=O)CN(C)C1=O` [Compound 1623] (cyclo([Ac5c][NMeV][d(β3hA)][NMeL]I[Sar][Sar][NMePhe(3-Cl)][Sar][hPhe(3-Cl-4-CF3)]P)), the IC50 stood at 54 nM.

As to `CC[C@H](C)[C@@H]1NC(=O)[C@H](CC(C)C)N(C)C(=O)C[C@@H](C(=O)N2CCCCC2)N(C)C(=O)[C@H](C(C)C)N(C)C(=O)C2(CCCC2)NC(=O)[C@@H]2CCCN2C(=O)[C@H](CCc2ccc(C(F)(F)F)c(Cl)c2)NC(=O)CN(C)C(=O)[C@H](CC2CCCCC2)N(C)C(=O)[C@@H]2CCN2C(=O)[C@H](CCc2ccccc2)N(C)C1=O` [Compound 1624] ([NMeL]I[NMehPhe][Aze][NMeCha][Sar][hPhe(3-Cl-4-CF3)]P[Ac5c][NMeV][NMeD]-Piperidide; lactam N-11), the 50% inhibitory concentration (IC50) came to 92 nM.

For the molecule `CC[C@H](C)[C@@H]1NC(=O)[C@H](CC(C)C)N(C)C(=O)C[C@@H](C)NC(=O)[C@H](C(C)C)N(C)C(=O)C2(CCCC2)NC(=O)[C@@H]2CCCN2C(=O)[C@H](CCc2ccc(C(F)(F)F)c(Cl)c2)NC(=O)CN(C)C(=O)[C@H](CCc2ccccc2)N(C)C(=O)CN(C)C(=O)CN(C)C1=O` [Compound 1627] (cyclo([Ac5c][NMeV][d(β3hA)][NMeL]I[Sar][Sar][NMehPhe][Sar][hPhe(3-Cl-4-CF3)]P)), the half-maximal inhibitory concentration (IC50) turned out to be 15 nM.

With `CC[C@H](C)[C@@H]1NC(=O)[C@H](CC(C)C)N(C)C(=O)C[C@@H](C)NC(=O)[C@H](C(C)C)N(C)C(=O)C2(CCCC2)NC(=O)[C@@H]2CCCN2C(=O)[C@H](CCc2ccc(C(F)(F)F)c(Cl)c2)NC(=O)CN(C)C(=O)[C@H](Cc2ccccc2OC(F)(F)F)N(C)C(=O)CN(C)C(=O)CN(C)C1=O` [Compound 1635] (cyclo([Ac5c][NMeV][d(β3hA)][NMeL]I[Sar][Sar][X23][Sar][hPhe(3-Cl-4-CF3)]P)), the 50% inhibitory concentration (IC50) was 140 nM.

In the case of `CC[C@H](C)[C@@H]1NC(=O)[C@H](CC(C)C)N(C)C(=O)C[C@@H](C(=O)N2CCCCC2)N(C)C(=O)[C@H](C(C)C)N(C)C(=O)C2(CCCC2)NC(=O)[C@@H]2CCCN2C(=O)[C@H](CCc2ccc(C(F)(F)F)c(Cl)c2)NC(=O)CN(C)C(=O)[C@H](CC2CCCCC2)N(C)C(=O)[C@@H]2CCN2C(=O)[C@H](CC2CC2)N(C)C1=O` [Compound 1642] ([NMeL]I[NMeAla(cPr)][Aze][NMeCha][Sar][hPhe(3-Cl-4-CF3)]P[Ac5c][NMeV][NMeD]-Piperidide; lactam N-11), the IC50 was 58 nM.

For the molecule `CC[C@H](C)[C@@H]1NC(=O)[C@H](CC(C)C)N(C)C(=O)C[C@@H](C(=O)N2CCCCC2)N(C)C(=O)[C@H](C2CCCCC2)N(C)C(=O)C2(CCCCC2)NC(=O)[C@@H]2CCCN2C(=O)[C@H](CCc2ccc(C(F)(F)F)c(Cl)c2)NC(=O)CN(C)C(=O)[C@H](CC2CCCCC2)N(C)C(=O)CN(C)C(=O)CN(C)C1=O` [Compound 1644] ([NMeL]I[Sar][Sar][NMeCha][Sar][hPhe(3-Cl-4-CF3)]P[Ac6c][NMeChg][NMeD]-Piperidide; lactam N-11), the IC50 worked out at 3.1 nM.

As to `CC[C@H](C)[C@@H]1NC(=O)[C@H](CC(C)C)N(C)C(=O)C[C@@H](C(=O)N2CCCCC2)N(C)C(=O)[C@H](C2CCCCC2)N(C)C(=O)C2(CCCC2)NC(=O)[C@@H]2CCCN2C(=O)[C@H](CCc2ccc(C(F)(F)F)c(Cl)c2)NC(=O)CN(C)C(=O)[C@H](CCC(F)F)N(C)C(=O)CN(C)C(=O)CN(C)C1=O` [Compound 1647] ([NMeL]I[Sar][Sar][NMeNva(5,5-F2)][Sar][hPhe(3-Cl-4-CF3)]P[Ac5c][NMeChg][NMeD]-Piperidide; lactam N-11), the half-inhibitory concentration (IC50) amounted to 3 nM.

Values taken from US12371454B2, “Cyclic peptide compound having Kras inhibitory action” (priority 2019, dated 2025).
